Where two headings read alike, the source gives them in different places.
Legend:
Format in all cases: cell-based
M4 muscarinic receptor = target: T1, M4 muscarinic receptor (Homo sapiens, UniProt P08173); assay: Functional mobilization of intracellular calcium (FLIPR) in CHO cells expressing M4; conditions: for M4 Activity: CHO cells expressing M4, FLIPR calcium assay; for Emax: CHO; for EC50: CHO cells expressing M4, FLIPR calcium
T1 construct: expressed in transfected cells; host or cells: CHO (M4-CHO)
T1 sequence (P08173 1-479): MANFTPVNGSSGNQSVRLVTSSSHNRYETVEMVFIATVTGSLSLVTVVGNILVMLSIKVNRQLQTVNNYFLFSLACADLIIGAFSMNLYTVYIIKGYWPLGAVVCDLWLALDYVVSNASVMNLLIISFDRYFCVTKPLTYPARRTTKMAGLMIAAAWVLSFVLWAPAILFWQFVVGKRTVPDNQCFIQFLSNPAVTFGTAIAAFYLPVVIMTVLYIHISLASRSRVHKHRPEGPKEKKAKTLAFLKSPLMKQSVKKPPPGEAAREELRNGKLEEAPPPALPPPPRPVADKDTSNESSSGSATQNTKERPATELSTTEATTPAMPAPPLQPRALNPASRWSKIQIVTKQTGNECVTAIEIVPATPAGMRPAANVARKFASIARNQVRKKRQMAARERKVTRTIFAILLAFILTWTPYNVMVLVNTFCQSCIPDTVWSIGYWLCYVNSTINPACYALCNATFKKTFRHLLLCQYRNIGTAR
Summary of the method: (§1)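 Calcium flux is read on FLIPR over 60 sec at 488/540 nm in muscarinic-receptor CHO lines. Antagonist mode adds carbachol at EC80 after 15 min compound preincubation or with simultaneous co-application. Agonist mode adds compound alone. Cells carry Fluo-3 or Calcium 3 dye in probenecid-containing pH 7.4 buffer, 0.5% DMSO final.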

M2 muscarinic receptor = target: T2, M2 muscarinic receptor (Homo sapiens, UniProt P08172); assay: Functional mobilization of intracellular calcium (FLIPR) in CHO cells expressing M2; conditions: for M2 Activity: CHO cells expressing M2, FLIPR calcium assay; for Emax: CHO; for EC50: CHO cells expressing M2, FLIPR calcium
T2 construct: expressed in transfected cells; host or cells: CHO (M2-CHO)
T2 sequence (P08172 1-466): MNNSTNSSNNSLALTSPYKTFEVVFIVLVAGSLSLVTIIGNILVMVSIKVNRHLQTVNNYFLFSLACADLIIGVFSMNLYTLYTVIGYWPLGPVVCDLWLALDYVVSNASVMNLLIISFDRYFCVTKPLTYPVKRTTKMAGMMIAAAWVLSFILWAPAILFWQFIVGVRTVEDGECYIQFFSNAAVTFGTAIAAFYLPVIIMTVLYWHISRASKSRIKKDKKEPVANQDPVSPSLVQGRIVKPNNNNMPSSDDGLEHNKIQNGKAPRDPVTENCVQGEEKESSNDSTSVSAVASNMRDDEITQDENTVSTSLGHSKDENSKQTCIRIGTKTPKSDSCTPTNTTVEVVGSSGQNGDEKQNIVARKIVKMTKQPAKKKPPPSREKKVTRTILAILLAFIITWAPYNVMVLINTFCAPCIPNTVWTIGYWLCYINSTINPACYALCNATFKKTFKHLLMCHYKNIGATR
Summary of the method: as §1

M1 muscarinic receptor = target: T3, M1 muscarinic receptor (Homo sapiens, UniProt P11229); assay: Functional mobilization of intracellular calcium (FLIPR) in CHO cells expressing M1; conditions: for M1 Activity: CHO cells expressing M1, FLIPR calcium assay; for Emax: CHO; for EC50: CHO cells expressing M1, FLIPR calcium
T3 construct: expressed in transfected cells; host or cells: CHO (M1-CHO)
T3 sequence (P11229 1-460): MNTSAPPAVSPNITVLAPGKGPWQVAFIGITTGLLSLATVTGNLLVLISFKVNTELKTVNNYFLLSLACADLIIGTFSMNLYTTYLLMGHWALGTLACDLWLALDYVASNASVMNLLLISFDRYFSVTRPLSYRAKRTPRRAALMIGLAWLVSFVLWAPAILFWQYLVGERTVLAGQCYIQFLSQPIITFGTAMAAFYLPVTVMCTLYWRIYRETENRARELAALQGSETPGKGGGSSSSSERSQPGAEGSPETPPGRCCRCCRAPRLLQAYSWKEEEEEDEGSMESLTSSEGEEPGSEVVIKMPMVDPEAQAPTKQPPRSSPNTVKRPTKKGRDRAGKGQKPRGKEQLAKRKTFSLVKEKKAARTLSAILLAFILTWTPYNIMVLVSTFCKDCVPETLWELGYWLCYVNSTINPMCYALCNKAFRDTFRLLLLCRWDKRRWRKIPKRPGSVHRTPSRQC
Summary of the method: as §1

M3 muscarinic receptor = target: T4, M3 muscarinic receptor (Homo sapiens, UniProt P20309); assay: Functional mobilization of intracellular calcium (FLIPR) in CHO cells expressing M3; conditions: for M3 Activity: CHO cells expressing M3, FLIPR calcium assay; for Emax: CHO; for EC50: CHO cells expressing M3, FLIPR calcium
T4 construct: expressed in transfected cells; host or cells: CHO (M3-CHO)
Summary of the method: as §1

[1] = 100% efficacy = maximum response obtained with the Carbachol control
[2] = 100% = maximum response obtained with the Carbachol control, read-out: M4 Efficacy
[3] = 100% = maximum response obtained with the Carbachol control, read-out: M2 Efficacy
[4] = 100% = maximum response obtained with the Carbachol control, read-out: M1 Efficacy
[5] = 100% = maximum response obtained with the Carbachol control, read-out: M3 Efficacy
[6] = 100% = maximum response obtained with the Carbachol control

T4 sequence (P20309 whole entry): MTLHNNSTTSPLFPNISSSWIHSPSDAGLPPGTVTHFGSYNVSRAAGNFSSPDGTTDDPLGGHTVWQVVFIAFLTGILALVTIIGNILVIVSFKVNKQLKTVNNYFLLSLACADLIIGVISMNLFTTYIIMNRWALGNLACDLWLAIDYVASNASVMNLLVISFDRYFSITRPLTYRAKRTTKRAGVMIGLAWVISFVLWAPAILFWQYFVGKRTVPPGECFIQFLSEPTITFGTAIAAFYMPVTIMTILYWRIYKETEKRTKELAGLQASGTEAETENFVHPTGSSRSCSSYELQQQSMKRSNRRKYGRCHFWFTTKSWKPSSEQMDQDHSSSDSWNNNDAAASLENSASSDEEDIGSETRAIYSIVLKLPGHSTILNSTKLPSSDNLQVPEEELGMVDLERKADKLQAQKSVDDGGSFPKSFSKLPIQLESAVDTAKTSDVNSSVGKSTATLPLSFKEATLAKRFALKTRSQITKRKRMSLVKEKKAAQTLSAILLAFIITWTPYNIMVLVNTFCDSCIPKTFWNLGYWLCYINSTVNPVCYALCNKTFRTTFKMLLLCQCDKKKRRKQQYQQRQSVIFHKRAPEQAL

Structure (SMILES)	M4 Activity (M4 muscarinic receptor)	Emax (M4 muscarinic receptor; [1])	M2 Activity (M2 muscarinic receptor)	Emax (M2 muscarinic receptor; [1])	M1 Activity (M1 muscarinic receptor)	Emax (M1 muscarinic receptor; [1])	M3 Activity (M3 muscarinic receptor)	Emax (M3 muscarinic receptor; [1])	EC50 (M4 muscarinic receptor)	Emax (M4 muscarinic receptor; [2])	EC50 (M2 muscarinic receptor)	Emax (M2 muscarinic receptor; [3])	EC50 (M1 muscarinic receptor)	Emax (M1 muscarinic receptor; [4])	EC50 (M3 muscarinic receptor)	Emax (M3 muscarinic receptor; [5])	M4 Efficacy (M4 muscarinic receptor; [6])	M2 Efficacy (M2 muscarinic receptor; [6])	M1 Efficacy (M1 muscarinic receptor; [6])	M3 Efficacy (M3 muscarinic receptor; [6])
CC(C)CCN1CCC2(CC[C@H](N(C)C(=O)N(C)C)c3ccccc32)CC1 [compound 206]	+++ (activity was measured to be less than 2.0 μM)	25 to 100%	+ (activity was measured to be greater than 5.0 μM)	< 25%	+ (activity was measured to be greater than 5.0 μM)	< 25%	+ (activity was measured to be greater than 5.0 μM)	< 25%												
Cc1ccc2c(c1)C(=O)CC21CCN(CCC(C)(C)C)CC1 [compound 288]	++ (activity was measured to be from 2.0 μM to 5.0 μM)	25 to 100%	+ (activity was measured to be greater than 5.0 μM)	< 25%	+ (activity was measured to be greater than 5.0 μM)	25 to 100%	+ (activity was measured to be greater than 5.0 μM)	< 25%												
CC(=O)N1CCCC1C(=O)N[C@H]1CCC2(CCN(CCC(C)(C)C)CC2)c2ccccc21 (stereo partly shown) [compound 60]									< 2000 nM	25 to 100%	> 5 µM	< 25%	< 2000 nM	25 to 100%	> 5 µM	< 25%				
CCN(C(=O)C1CCOC(C)(C)C1)[C@H]1CCC2(CCN(CCC(C)(C)C)CC2)c2ccccc21 (stereo partly shown) [compound 30]									2000 to 5000 nM	25 to 100%	> 5 µM	< 25%	> 5000 nM	< 25%	> 5 µM	< 25%				
CCN(C(=O)Cc1ccccn1)[C@H]1CCC2(CCN(CCC(C)(C)C)CC2)c2ccccc21 [compound 198]	+++ (activity was measured to be less than 2.0 μM)	25 to 100%	++ (activity was measured to be from 2.0 μM to 5.0 μM)	< 25%	+++ (activity was measured to be less than 2.0 μM)	25 to 100%	+ (activity was measured to be greater than 5.0 μM)	< 25%												
CC(C)(C)CCN1CCC2(CC[C@@H](NC(=O)CC3CCCC3=O)c3ccc(F)cc32)CC1 (stereo partly shown) [compound 17]									< 2000 nM	25 to 100%	> 5 µM	< 25%	< 2000 nM	25 to 100%	> 5 µM	< 25%				
CCN(C(=O)Cc1cccnc1)[C@H]1CCC2(CCN(CCC(C)(C)C)CC2)c2ccccc21 [compound 136]									< 2000 nM	25 to 100%	2 to 5 µM	< 25%	2000 to 5000 nM	25 to 100%	> 5 µM	< 25%				
CC(C)(C)CCN1CCC2(CC[C@H](NC(=O)C3CCCO3)c3ccc(F)cc32)CC1 (stereo partly shown) [compound 27]									< 2000 nM	25 to 100%	< 2 µM	< 25%	< 2000 nM	25 to 100%	> 5 µM	< 25%				
CC(C)(C)CCN1CCC2(CCC(=O)c3ccccc32)CC1 [compound 173]									< 2000 nM	25 to 100%	< 2 µM	25 to 100%	< 2000 nM	25 to 100%	> 5 µM	< 25%				
CC(C)(C)CCN1CCC2(CC[C@H](NC(=O)c3cccnc3)c3ccccc32)CC1 [compound 74]									< 2000 nM		< 2 µM		< 2000 nM		> 5 µM		++ (efficacy was calculated to be from 100% to 25%)	++ (efficacy was calculated to be from 100% to 25%)	++ (efficacy was calculated to be from 100% to 25%)	+ (efficacy was calculated to be less than 25%)
CCN(C(=O)C1CCC(=O)C1)[C@H]1CCC2(CCN(CCC(C)(C)C)CC2)c2ccccc21 (stereo partly shown) [compound 44]									< 2000 nM	25 to 100%	> 5 µM	< 25%	2000 to 5000 nM	25 to 100%	> 5 µM	< 25%				

Reference: patent publication US8003660B2, “Modulators of muscarinic receptors” (Vertex Pharmaceuticals Incorporated, priority 2006, dated 2011)
